Laboratory results published in PMC9962921, “Interlaboratory Study to Evaluate a Testing Protocol for the Safety of Food Packaging Coatings” (Toxics, 2023).
Where two headings read alike, the source gives them in different places.

What was measured:
[1] = target: T1, Aryl hydrocarbon Receptor (AhR) (Rattus norvegicus, UniProt P41738); assay: AhR (PAH) CALUX reporter gene assay; conditions: EC50 AhR reference compound (mean)
T1 sequence (P41738 10-853): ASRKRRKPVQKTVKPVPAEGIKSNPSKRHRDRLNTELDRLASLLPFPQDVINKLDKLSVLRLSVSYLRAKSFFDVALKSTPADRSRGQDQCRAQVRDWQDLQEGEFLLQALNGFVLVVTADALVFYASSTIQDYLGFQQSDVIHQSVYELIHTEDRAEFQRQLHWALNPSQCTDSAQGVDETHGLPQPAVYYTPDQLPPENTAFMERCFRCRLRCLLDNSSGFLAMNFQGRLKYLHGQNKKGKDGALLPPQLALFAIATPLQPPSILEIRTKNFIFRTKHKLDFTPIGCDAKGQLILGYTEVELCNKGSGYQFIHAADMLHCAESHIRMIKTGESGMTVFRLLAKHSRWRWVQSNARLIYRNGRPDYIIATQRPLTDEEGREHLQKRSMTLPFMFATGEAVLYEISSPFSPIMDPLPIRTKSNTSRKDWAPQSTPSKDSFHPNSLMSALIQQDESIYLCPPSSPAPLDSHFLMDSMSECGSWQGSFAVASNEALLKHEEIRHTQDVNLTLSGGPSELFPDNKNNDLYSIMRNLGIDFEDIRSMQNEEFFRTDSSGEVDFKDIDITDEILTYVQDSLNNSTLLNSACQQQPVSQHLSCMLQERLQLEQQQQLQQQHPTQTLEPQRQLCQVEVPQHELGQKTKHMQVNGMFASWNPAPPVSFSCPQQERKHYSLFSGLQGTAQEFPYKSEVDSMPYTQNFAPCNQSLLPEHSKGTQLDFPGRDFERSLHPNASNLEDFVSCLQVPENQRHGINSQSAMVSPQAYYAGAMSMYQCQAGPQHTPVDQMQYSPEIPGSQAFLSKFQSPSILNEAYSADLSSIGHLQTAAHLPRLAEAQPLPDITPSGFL
Experimental: Briefly, cells were seeded in a 96-well plate (VWR, Dietikon, Switzerland) and incubated for 24 h at 37 °C, 5% CO2 and 100% humidity. […] In addition, a serial dilution of each of the different migrates were exposed in triplicates. After 24 h of exposure for cytotoxicity, ERα, AR and 4 h of exposure for poly-aromatic hydrocarbons (PAH) of exposure, the luciferase activity is measured with a luminometer plate reader (Mithras, Berthold, Germany).
Relative luminescence units obtained were processed as described by proprietary calculation template (BDS) (Amsterdam, The Netherlands). Receptor-binding activation was quantified as the amount of relative luciferase units (RLU) emitted after samples’ exposure. The signal is proportional to the amount of ligand-specific receptor-binding activation. After normalization to solvent control (DMSO) the percentage of relative induction (RI) or relative inhibition (RInh) was calculated for the selected nuclear receptors and the cell viability. The samples were then expressed as percentage of the maximum reference compound response. All dose responses and dilutions were performed in technical triplicates. […] For the PAH CALUX bioassay, the threshold level was set as 10%. […] Dose–response obtained between laboratories C and D was compared.

[2] = target: T1, Aryl hydrocarbon Receptor (AhR); conditions: read-out: EC50 standard range, AhR reference compound; historical range; ref BDS BioDetection Systems historical data; cited from earlier work

## c1ccc2c(c1)cc1ccc3cccc4ccc2c1c34 [Benzo(a)pyrene, benzo[a]pyrene]
[1]; LAB C
  EC50: 3.3 nM
[1]; LAB D
  EC50: 7.2 nM
[2]
  EC50: 1.6 to 16 nM
